Test results as given in US20020164663A1, “Methods and compositions for detection, diagnosis and prediction of antiestrogen-resistant breast cancer” (BOARD OF REGENTS, THE UNIVERSITY OF TEXAS SYSTEM, priority 1998, published 2002).

Legend:
MCF-7 tumors = MCF-7 tumors in mammary fat pads of athymic nude mice, tamoxifen treatment after removal of estrogen pellet; type: in vivo; conditions: athymic nude mice with MCF-7 tumors; estrogen pellets removed, treated with tamoxifen; later tumors became resistant and growth resumed
Experimental: (§1) MCF-7 tumors were inoculated into the mammary fat pads of athymic nude mice supplemented with an estrogen pellet as described previously (Osborne et al., 1985) until tumors arose. The estrogen pellets were removed and the animals were treated with tamoxifen. […] Invariably, however, after initial growth suppression, the tumors became resistant and growth resumed. Animals were sacrificed at various times to obtain cells from estrogen-stimulated (ES) tumors prior to tamoxifen treatment, from tamoxifen-sensitive (TS) tumors during tamoxifen treatment but prior to acquired resistance, and from tamoxifen-resistant (TR) tumors after tumor growth had resumed.

VEGF = test: cDNA expression array of MCF-7 tumors (estrogen-stimulated, tamoxifen-sensitive, tamoxifen-resistant); type: in vivo, human; conditions: breast cancers treated with tamoxifen in comparison with estrogen-stimulated breast cancer; FIG. 6
Experimental: as §1
(§2) RNA was prepared from these tumors (n=5 tumors per group) using RNeasy kits (Qiagen Inc., Valencia, Calif.), and mRNA was isolated on Dynabeads (Dyne, Oslo, Norway) according to manufacturer's instructions. […]
(§3) The controls, which were more difficult to quantitate reliably, were not included in the statistical analyses. […]
(§4) Principal Components Analysis (PCA) of mean-centered log-transformed data, based on the variance-covariance matrix (Tatsuoka, 1971), was then used to standardize across the three hybridizations and to extract three new axes (components P1, P2, and P3), expressed as linear combinations of the original axes (ES, TS, and TR). […]

bFGFR = test: as above; type: in vivo, human; conditions: breast cancers treated with tamoxifen in comparison with estrogen-stimulated breast cancer; FIG. 6
Experimental: as §1, §2, §3, §4

`CC/C(=C(\c1ccccc1)c1ccc(OCCN(C)C)cc1)c1ccccc1` [tamoxifen] was tested, and the Tumor volumes (MCF-7 tumors) was “declined and remained stable for several months”, the VEGF expression (VEGF) was “decreased expression” and the bFGFR expression (bFGFR) was “decreased expression”.
